Source: US11642336B2, “5-HT2A agonists for use in treatment of depression” (priority 2019, dated 2023)
Structures can show the parent of a compound that is named as a salt. Marks after values point to notes of the source that are not given here.
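Wherever 5-HT2C EC50 (nM) is given: Agonist-induced intracellular Ca2+ rise read by Fluo-4 fluorescence in HEK293 cells stably expressing the human 5-HT2C receptor, each compound run in duplicate on three or more occasions.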
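Wherever 5-HT2C Rmax ± S.E.M is given: Agonist-induced intracellular Ca2+ rise read by Fluo-4 fluorescence in HEK293 cells stably expressing the human 5-HT2C receptor, each compound run in duplicate on three or more occasions.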
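Wherever 5-HT2C [pEC50 ± S.E.M.] is given: Agonist-induced intracellular Ca2+ rise read by Fluo-4 fluorescence in HEK293 cells stably expressing the human 5-HT2C receptor, each compound run in duplicate on three or more occasions.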
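Wherever 5-HT2C agonist activity (n.a./w.a.) is given: Agonist-induced intracellular Ca2+ rise read by Fluo-4 fluorescence in HEK293 cells stably expressing the human 5-HT2C receptor, each compound run in duplicate on three or more occasions.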

Each molecule was assayed against human 5-HT2A (Homo sapiens (Human), UniProt P28223) (assay: cell-based). Conditions: % of the Rmax of 5-HT.
Format: cell-based
In the case of `COc1cc(C(F)(F)F)ccc1[C@H]1CCCNC1` [Compound 52, (R)-3-(2-methoxy-4-(trifluoromethyl)phenyl)piperidine hydrochloride], the “5-HT2A Rmax ± S.E.M” value is reported as 77 ± 2%. With `COc1cc([C@H]2CCCNC2)c(OC2CC2)cc1C(F)(F)F` [Compound 54, (R)-3-(2-cyclopropoxy-5-methoxy-4-(trifluoromethyl)phenyl)piperidine hydrochloride] the “5-HT2A Rmax ± S.E.M” value was 76 ± 4%. In the case of `CCN1CCC[C@@H](c2cc(OC)c(C(F)(F)F)cc2OC)C1` [Compound 59, (S)-3-(2,5-dimethoxy-4-(trifluoromethyl)phenyl)-1-ethylpiperidine], the “5-HT2A Rmax ± S.E.M” value is reported as 44 ± 3%. In the case of `COc1cc(C(F)(F)F)c(OC)cc1[C@H]1CCCN(C)C1` [Compound 60, (R)3-(2,5-dimethoxy-4-(trifluoromethyl)phenyl)-1-methylpiperidine], the “5-HT2A Rmax ± S.E.M” value is reported as 53 ± 8%.

Same assay, conditions: Ca2+/Fluo-4 assay; bounds are conservative estimates
For `CCN1CCC[C@@H](c2cc(OC)c(C(F)(F)F)cc2OC)C1` [Compound 59, (S)-3-(2,5-dimethoxy-4-(trifluoromethyl)phenyl)-1-ethylpiperidine], the “Selectivity EC50 5-HT2C/EC50 5-HT2A” value was >30^e.

Same assay, conditions: agonist potency, n = 3-4; read-out: 5-HT2A EC50
For `COc1cc([C@H]2CCCNC2)c(OC)cc1Cl` [Compound 9, (R)-3-(4-Chloro-2,5-dimethoxyphenyl)piperidine], the EC50 was 0.69 µM. `COc1cc([C@H]2CCCNC2)c(OC)cc1Br` [Compound 11, (R)-3-(4-bromo-2,5-dimethoxyphenyl)piperidine] gave an EC50 of 0.37 µM. `COc1cc([C@H]2CCCNC2)c(OC)cc1I` [Compound 13, (R)-3-(4-Iodo-2,5-dimethoxyphenyl)piperidine] gave an EC50 of 0.26 µM. Molecule `COc1cc([C@H]2CCCNC2)c(OC)cc1C#N` [Compound 15, (R)-2,5-dimethoxy-4-(piperidin-3-yl)benzonitrile] has an EC50 of 2.2 µM. Molecule `COc1cc([C@H]2CCCNC2)c(OC)cc1SC` [Compound 17, (R)-3-(2,5-dimethoxy-4-(methylthio)phenyl)piperidine hydrochloride] has an EC50 of 0.18 µM. Work on `COc1cc([C@H]2CCCNC2)c(OC)cc1C` [Compound 23, (R)-3-(2,5-dimethoxy-4-methylphenyl)piperidine hydrochloride] yielded an EC50 of 0.26 µM. `COc1cc([C@H]2CCCNC2)c(OC)cc1SC(C)C` [Compound 25, (R)-3-(4-(isopropylthio)-2,5-dimethoxyphenyl)piperidine] gave an EC50 of 0.29 µM. In the case of `CCSc1cc(OC)c([C@H]2CCCNC2)cc1OC` [Compound 27, (R)-3-(2,5-dimethoxy-4-(ethylthio)phenyl)piperidine hydrochloride], the EC50 is reported as 0.19 µM. Work on `CCc1cc(OC)c([C@H]2CCCNC2)cc1OC` [Compound 31, (R)-3-(4-ethyl-2,5-dimethoxyphenyl)piperidine hydrochloride] yielded an EC50 of 0.11 µM. Work on `COc1cc(C(F)(F)F)ccc1[C@H]1CCCNC1` [Compound 52, (R)-3-(2-methoxy-4-(trifluoromethyl)phenyl)piperidine hydrochloride] yielded an EC50 of 0.48 µM. Molecule `COc1cc([C@H]2CCCNC2)c(OC2CC2)cc1C(F)(F)F` [Compound 54, (R)-3-(2-cyclopropoxy-5-methoxy-4-(trifluoromethyl)phenyl)piperidine hydrochloride] has an EC50 of 1.8 µM. `CCCCc1cc(OC)c([C@H]2CCCNC2)cc1OC` [Compound 56, (R)-3-(4-butyl-2,5-dimethoxyphenyl)piperidine hydrochloride] showed an EC50 of 0.34 µM. `CCN1CCC[C@@H](c2cc(OC)c(C(F)(F)F)cc2OC)C1` [Compound 59, (S)-3-(2,5-dimethoxy-4-(trifluoromethyl)phenyl)-1-ethylpiperidine] gave an EC50 of 1.5 µM. With `COc1cc(C(F)(F)F)c(OC)cc1[C@H]1CCCN(C)C1` [Compound 60, (R)3-(2,5-dimethoxy-4-(trifluoromethyl)phenyl)-1-methylpiperidine] the EC50 was 1.1 µM.

Same assay, conditions: agonist potency, n = 3-4; read-out: 5-HT2A [pEC50 ± S.E.M.] (converted)
`COc1cc([C@H]2CCCNC2)c(OC)cc1I` [Compound 13, (R)-3-(4-Iodo-2,5-dimethoxyphenyl)piperidine] gave an EC50 of 0.263 µM. For `COc1cc([C@H]2CCCNC2)c(OC)cc1SC` [Compound 17, (R)-3-(2,5-dimethoxy-4-(methylthio)phenyl)piperidine hydrochloride], the EC50 was 0.178 µM. Molecule `COc1cc([C@H]2CCCNC2)c(OC)cc1C` [Compound 23, (R)-3-(2,5-dimethoxy-4-methylphenyl)piperidine hydrochloride] has an EC50 of 0.263 µM. For `CCSc1cc(OC)c([C@H]2CCCNC2)cc1OC` [Compound 27, (R)-3-(2,5-dimethoxy-4-(ethylthio)phenyl)piperidine hydrochloride], the EC50 was 0.186 µM. `CCc1cc(OC)c([C@H]2CCCNC2)cc1OC` [Compound 31, (R)-3-(4-ethyl-2,5-dimethoxyphenyl)piperidine hydrochloride] was tested, and the EC50 was 0.115 µM. Work on `COc1cc([C@H]2CCCNC2)c(OC2CC2)cc1C(F)(F)F` [Compound 54, (R)-3-(2-cyclopropoxy-5-methoxy-4-(trifluoromethyl)phenyl)piperidine hydrochloride] yielded an EC50 of 1.78 µM. With `CCCCc1cc(OC)c([C@H]2CCCNC2)cc1OC` [Compound 56, (R)-3-(4-butyl-2,5-dimethoxyphenyl)piperidine hydrochloride] the EC50 was 0.347 µM.

Same assay, conditions: nitrogen substituents (tertiary amines)
With `CCN1CCC[C@@H](c2cc(OC)c(C(F)(F)F)cc2OC)C1` [Compound 59, (S)-3-(2,5-dimethoxy-4-(trifluoromethyl)phenyl)-1-ethylpiperidine] the “loss of potency at 5-HT2A compared to compound 8 (factor)” value was about 80.

Same assay, conditions: tested up to 50 μM
In the case of `CCN1CCC[C@H](c2cc(OC)c(C(F)(F)F)cc2OC)C1` [Compound 58, (R)-3-(2,5-dimethoxy-4-(trifluoromethyl)phenyl)-1-ethylpiperidine], the “5-HT2A agonist activity (n.a./w.a.)” value is reported as “w.a. [@ 2-10-50”.

These molecules were tested against 5-HT2C (Homo sapiens (Human), UniProt P28335) (assay: Ca2+/Fluo-4 assay, stable h5-HT2C-HEK293 cell line). Conditions: 5-HT2C EC50 (nM), agonist potency, n = 3-4.
Chain of 5-HT2C (P28335 whole entry, looked up): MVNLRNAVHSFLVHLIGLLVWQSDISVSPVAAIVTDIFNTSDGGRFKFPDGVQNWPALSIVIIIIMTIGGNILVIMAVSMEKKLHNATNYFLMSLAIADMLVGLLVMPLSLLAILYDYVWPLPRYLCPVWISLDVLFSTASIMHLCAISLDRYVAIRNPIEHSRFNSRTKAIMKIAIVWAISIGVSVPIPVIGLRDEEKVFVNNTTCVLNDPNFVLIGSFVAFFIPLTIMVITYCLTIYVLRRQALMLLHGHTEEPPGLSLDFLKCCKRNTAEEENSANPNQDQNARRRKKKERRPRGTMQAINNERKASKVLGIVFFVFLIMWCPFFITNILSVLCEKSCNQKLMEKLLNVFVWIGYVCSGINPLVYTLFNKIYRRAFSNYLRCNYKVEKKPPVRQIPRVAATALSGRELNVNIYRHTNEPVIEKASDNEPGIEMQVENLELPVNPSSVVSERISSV
Format: cell-based
In the case of `COc1cc(CCNCc2ccccc2O)c(OC)cc1C#N` [drawing 23, reference compound], the EC50 is reported as 47 nM.

Same assay, conditions: % of the Rmax of 5-HT
With `COc1cc([C@H]2CCCNC2)c(OC)cc1C#N` [Compound 15, (R)-2,5-dimethoxy-4-(piperidin-3-yl)benzonitrile] the “5-HT2C Rmax ± S.E.M” value was ~13-17^c %. In the case of `COc1cc([C@H]2CCCNC2)c(OC2CC2)cc1C(F)(F)F` [Compound 54, (R)-3-(2-cyclopropoxy-5-methoxy-4-(trifluoromethyl)phenyl)piperidine hydrochloride], the “5-HT2C Rmax ± S.E.M” value is reported as ~46-63^c %. `COc1cc(CCNCc2ccccc2O)c(OC)cc1C#N` [drawing 23, reference compound] was tested, and the “5-HT2C Rmax ± S.E.M” value was 96 ± 7%.

Same assay, conditions: agonist potency, n = 3-4; read-out: 5-HT2C EC50
In the case of `COc1cc(C(F)(F)F)c(OC)cc1[C@H]1CCCNC1` [Compound 7, (R)-3-(2,5-Dimethoxy-4-(trifluoromethyl)phenyl)piperidine hydrochloride], the EC50 is reported as 860 nM. For `COc1cc([C@H]2CCCNC2)c(OC)cc1Cl` [Compound 9, (R)-3-(4-Chloro-2,5-dimethoxyphenyl)piperidine], the EC50 was 1800 nM. Molecule `COc1cc([C@H]2CCCNC2)c(OC)cc1Br` [Compound 11, (R)-3-(4-bromo-2,5-dimethoxyphenyl)piperidine] has an EC50 of 1900 nM. `COc1cc([C@H]2CCCNC2)c(OC)cc1C#N` [Compound 15, (R)-2,5-dimethoxy-4-(piperidin-3-yl)benzonitrile] gave an EC50 of about 10000 nM. Molecule `COc1cc([C@H]2CCCNC2)c(OC)cc1SC` [Compound 17, (R)-3-(2,5-dimethoxy-4-(methylthio)phenyl)piperidine hydrochloride] has an EC50 of 2300 nM. For `COc1cc([C@H]2CCCNC2)c(OC)cc1C` [Compound 23, (R)-3-(2,5-dimethoxy-4-methylphenyl)piperidine hydrochloride], the EC50 was 1200 nM. For `CCSc1cc(OC)c([C@H]2CCCNC2)cc1OC` [Compound 27, (R)-3-(2,5-dimethoxy-4-(ethylthio)phenyl)piperidine hydrochloride], the EC50 was 780 nM. `CCc1cc(OC)c([C@H]2CCCNC2)cc1OC` [Compound 31, (R)-3-(4-ethyl-2,5-dimethoxyphenyl)piperidine hydrochloride] was tested, and the EC50 was 640 nM. With `COc1cc(C(F)(F)F)ccc1[C@H]1CCCNC1` [Compound 52, (R)-3-(2-methoxy-4-(trifluoromethyl)phenyl)piperidine hydrochloride] the EC50 was 1400 nM. With `COc1cc([C@H]2CCCNC2)c(OC2CC2)cc1C(F)(F)F` [Compound 54, (R)-3-(2-cyclopropoxy-5-methoxy-4-(trifluoromethyl)phenyl)piperidine hydrochloride] the EC50 was 3000 to 10000 nM. Molecule `CCCCc1cc(OC)c([C@H]2CCCNC2)cc1OC` [Compound 56, (R)-3-(4-butyl-2,5-dimethoxyphenyl)piperidine hydrochloride] has an EC50 of 1600 nM.

Same assay, conditions: agonist potency, n = 3-4; read-out: 5-HT2C [pEC50 ± S.E.M.] (converted)
`COc1cc([C@H]2CCCNC2)c(OC)cc1Cl` [Compound 9, (R)-3-(4-Chloro-2,5-dimethoxyphenyl)piperidine] was tested, and the EC50 was 1780 nM. `COc1cc([C@H]2CCCNC2)c(OC)cc1SC` [Compound 17, (R)-3-(2,5-dimethoxy-4-(methylthio)phenyl)piperidine hydrochloride] was tested, and the EC50 was 2340 nM.

Same assay, conditions: tested up to 50 μM
`CCN1CCC[C@H](c2cc(OC)c(C(F)(F)F)cc2OC)C1` [Compound 58, (R)-3-(2,5-dimethoxy-4-(trifluoromethyl)phenyl)-1-ethylpiperidine] was tested, and the “5-HT2C agonist activity (n.a./w.a.)” value was “w.a”. With `CCN1CCC[C@@H](c2cc(OC)c(C(F)(F)F)cc2OC)C1` [Compound 59, (S)-3-(2,5-dimethoxy-4-(trifluoromethyl)phenyl)-1-ethylpiperidine] the “5-HT2C agonist activity (n.a./w.a.)” value was “w.a”. `COc1cc(C(F)(F)F)c(OC)cc1[C@H]1CCCN(C)C1` [Compound 60, (R)3-(2,5-dimethoxy-4-(trifluoromethyl)phenyl)-1-methylpiperidine] was tested, and the “5-HT2C agonist activity (n.a./w.a.)” value was “w.a”.
